Data reported in patent US8163909B2, “Substituted hydroxyethyl amine compounds as beta-secretase modulators and methods of use” (Amgen Inc., priority 2007, dated 2012).
Where two headings read alike, the source gives them in different places.

Assays:
CYP3A4 (CYP3A) = CYP3A4 (CYP3A) (Homo sapiens, UniProt P08684); test: in vitro; details: microsomes, pH 7.4;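 also: inhibition of CYP3A-mediated 1-hydroxymidazolam formation after 10 min incubation with NADPH, quantified by HPLC MS relative to metabolite produced without test compound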
CYP3A4 (CYP3A), sequence (P08684 2-503): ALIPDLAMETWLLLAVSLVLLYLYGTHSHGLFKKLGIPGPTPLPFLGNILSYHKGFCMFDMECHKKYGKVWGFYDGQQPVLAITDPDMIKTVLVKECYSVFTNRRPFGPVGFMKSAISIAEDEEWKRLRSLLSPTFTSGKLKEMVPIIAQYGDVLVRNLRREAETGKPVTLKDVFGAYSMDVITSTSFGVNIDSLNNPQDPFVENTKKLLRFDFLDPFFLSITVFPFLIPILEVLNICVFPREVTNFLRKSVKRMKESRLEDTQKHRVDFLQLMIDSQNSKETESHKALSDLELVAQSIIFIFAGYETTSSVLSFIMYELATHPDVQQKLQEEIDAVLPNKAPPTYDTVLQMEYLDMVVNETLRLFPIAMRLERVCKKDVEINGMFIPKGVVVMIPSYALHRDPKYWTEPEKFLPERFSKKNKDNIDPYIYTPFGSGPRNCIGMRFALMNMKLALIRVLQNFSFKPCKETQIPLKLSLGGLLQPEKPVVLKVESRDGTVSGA

[1] = target: Beta Secretase enzyme (BACE) (Homo sapiens, UniProt P56817); test: In vitro enzymatic BACE FRET (fluorescence resonance energy transfer) assay; assay type: biochemical;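 also: fluorescence read after 1 h with 50 nM quenched peptide substrate spanning the BACE cleavage site, in pH 4.2 acetate buffer containing 10% DMSO and nonionic detergent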
Beta Secretase enzyme (BACE), sequence (P56817 46-501): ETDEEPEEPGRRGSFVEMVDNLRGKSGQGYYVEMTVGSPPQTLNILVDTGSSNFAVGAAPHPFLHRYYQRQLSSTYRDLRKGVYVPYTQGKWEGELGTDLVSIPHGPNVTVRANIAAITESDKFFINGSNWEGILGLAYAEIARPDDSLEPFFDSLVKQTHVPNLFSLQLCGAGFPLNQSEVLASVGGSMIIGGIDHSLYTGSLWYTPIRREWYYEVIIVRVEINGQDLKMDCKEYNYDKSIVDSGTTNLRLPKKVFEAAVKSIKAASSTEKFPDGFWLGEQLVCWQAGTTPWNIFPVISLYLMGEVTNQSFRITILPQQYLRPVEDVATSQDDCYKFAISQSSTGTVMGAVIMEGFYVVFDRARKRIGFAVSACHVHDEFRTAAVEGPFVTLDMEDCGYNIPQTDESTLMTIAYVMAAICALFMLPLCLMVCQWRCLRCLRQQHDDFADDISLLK

[2] = Microsomal stability assay, rat liver microsomes;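 also: rat liver microsomes (0.25 mg/mL) with about 1 µM compound plus 1 mM NADPH, pH 7.4, 37 °C for 30 min, parent left measured by LC-MS/MS against 0 min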
CYP2D6 = CYP2D6 (Homo sapiens, UniProt P10635); test: CYP2D6 inhibition assay (bufuralol, pooled human liver microsomes)
CYP2D6, sequence (P10635 whole entry): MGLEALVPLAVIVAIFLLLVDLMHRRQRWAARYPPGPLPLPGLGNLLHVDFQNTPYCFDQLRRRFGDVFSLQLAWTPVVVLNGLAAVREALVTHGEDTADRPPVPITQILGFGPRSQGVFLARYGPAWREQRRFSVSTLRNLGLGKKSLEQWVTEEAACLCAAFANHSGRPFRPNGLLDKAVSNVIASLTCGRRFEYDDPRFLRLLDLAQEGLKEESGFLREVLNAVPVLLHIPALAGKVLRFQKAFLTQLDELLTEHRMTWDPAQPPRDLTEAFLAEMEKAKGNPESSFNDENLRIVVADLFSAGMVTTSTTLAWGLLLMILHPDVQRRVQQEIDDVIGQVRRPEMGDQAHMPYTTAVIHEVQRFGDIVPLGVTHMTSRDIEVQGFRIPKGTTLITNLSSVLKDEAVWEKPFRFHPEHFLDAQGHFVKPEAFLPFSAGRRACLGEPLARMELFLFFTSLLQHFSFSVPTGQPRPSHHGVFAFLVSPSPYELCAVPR

[3] = Microsomal stability assay, human liver microsomes;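 also: pooled human liver microsomes at 0.25 mg/mL with 1 µM compound and NADPH at 37 °C, pH 7.4, for 30 min, unchanged parent quantified by LC-MS/MS against the 0 min sample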
[4] = tested on: Aβ40 in conditioned medium of cells stably expressing Amyloid Precursor Protein (APP); test: In vitro BACE cell-based assay (Aβ40 in conditioned medium, sandwich ELISA); details: Homo sapiens;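 also: compounds added as a dilution series, secreted peptide quantified by europium time-resolved fluorescence readout, potency fitted from percent of control versus compound concentration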
[5] = BACE enzyme assay, IC50's in uM, read-out: BACE1 FRET assay
[6] = 2D6 IC50 (uM), CYP enzyme inhibition
[7] = HEK293, HEK cell-based assay, IC50's in uM, read-out: HEK cell assay
[8] = read-out: BACE1 FRET assay (IC50)
[9] = HEK293, HEK cells, read-out: HEK cell assay (IC50)
[10] = 2D6 IC50, CYP enzyme inhibition
[11] = HEK293, cell-based assay, HEK cells, IC50's in uM, read-out: HEK cell assay
[12] = Table 2, read-out: BACE1 FRET assay
[13] = HEK293, Table 2, HEK cells, read-out: HEK cell assay
[14] = BACE enzyme assay, read-out: BACE1 FRET assay
[15] = HEK293, HEK cells, read-out: HEK cell assay
[16] = BACE enzyme assay IC50, read-out: BACE1 FRET assay
[17] = 2D6 IC50 (uM), CYP2D6 inhibition
[18] = HEK293, HEK cell-based assay IC50, read-out: HEK cell assay

SMILES	IC50 (CYP3A4 (CYP3A)) [nM]	IC50 [1, 5] [µM]	RLM ([2]; rat liver microsomal data) [µL/min/mg]	IC50 (CYP2D6; [6]) [µM]	HLM ([3]; human liver microsomal data) [µL/min/mg]	RLM ([2]; rat liver microsomes) [µL/min/mg]	HLM ([3]; human liver microsomes) [µL/min/mg]	further results
C#Cc1cccc(C[C@H](NC(=O)COC)[C@H](O)CN[C@H]2C[C@@]3(CCOC3)Oc3ncc(CC(C)(C)C)cc32)c1 [compound 825, N-((1S,2R)-3-(((3S,4′S)-6′-(2,2-dimethylpropyl)-3′,4,4′,5-tetrahydrospiro[furan-3,2′-pyrano[2,3-b]pyridin]-4′-yl)amino)-1-(3-ethynylbenzyl)-2-hydroxypropyl)-2-methoxyacetamide]	100	0.005	85	7.3	17	–	–	IC50 [4, 7]: 0.009 µM
CC(=O)N[C@@H](Cc1cc(F)cc(-c2cccnc2)c1)[C@H](O)CN[C@H]1CC2(CCC2)Oc2ccc(CC(C)(C)C)cc21 [compound 649]	300	–	–	–	–	482	706	IC50 [1, 8]: 0.007 µM; IC50 (CYP2D6; 2D6 IC50, CYP2D6 inhibition): 0.5 µM; IC50 [4, 9]: 0.03 µM
COCC(=O)N[C@@H](Cc1cc(F)cc(Cl)c1)[C@H](O)CN[C@H]1CC2(CCC2)Oc2ncc(CC(C)(F)F)cc21 [compound 799]	500	0.008	236.5	4.95	663	–	–	IC50 [4, 7]: 0.019 µM
CC(=O)N[C@@H](Cc1ccc(F)c(-c2ccncc2)c1)[C@H](O)CN[C@H]1CC2(CCC2)Oc2ccc(CC(C)(C)C)cc21 [compound 625]	160	–	–	–	–	330	389	IC50 [1, 8]: 0.042 µM; IC50 (CYP2D6; 2D6 IC50, CYP2D6 inhibition): 0.2 µM; IC50 [4, 9]: 0.057 µM
COCC(=O)N[C@@H](Cc1cccc([C@H]2CCCO2)c1)[C@H](O)CN[C@H]1CC2(CCC2)Oc2ncc(CC(C)(C)C)cc21 [compound 916]	400	9.5	644	–	399	–	–	IC50 (CYP2D6; [10]): 8.1 µM; IC50 [4, 11]: 2.25 µM
CO[C@H](C)C(=O)N[C@@H](Cc1cncs1)[C@H](O)CN[C@H]1CC2(CCC2)Oc2ncc([C@@H]3CC3(C)C)cc21 [compound 794]	500	0.005	132	9.8	205	–	–	IC50 [4, 7]: 0.009 µM
CC(C)(C)Cc1cnc2c(c1)[C@@H](NC[C@@H](O)[C@H](Cc1ccc3c(c1)OCO3)NC(=O)CC1CCS(=O)(=O)C1)CC1(CCC1)O2 (stereo partly drawn) [compound 778]	100	0.048	141	8.5	62	–	–	IC50 [4, 7]: 0.05 µM
CO[C@H](C)C(=O)N[C@@H](Cc1cc(Cl)ccc1F)[C@H](O)CN[C@H]1CC2(CCC2)Oc2ncc(CC(C)(C)C)cc21 [compound 899]	100	0.005	543	–	443	–	–	IC50 (CYP2D6; [10]): 2.6 µM; IC50 [4, 11]: 0.009 µM
CC(=O)C(C)(C)C(=O)N[C@@H](Cc1ccc2c(c1)OCO2)[C@H](O)CN[C@H]1CC2(CCC2)Oc2ncc(CC(C)(C)C)cc21 [compound 457]	100	–	90	–	44	–	–	IC50 [1, 12]: 0.792 µM; IC50 (CYP2D6; [10]): 2.4 µM; IC50 [4, 13]: 0.905 µM
COCC(=O)N[C@@H](Cc1cc(F)cc(-c2nccs2)c1)[C@H](O)CN[C@@]1(C)CC2(CCC2)Oc2ncc(CC(C)(C)C)cc21 [compound 866]	200	0.177	90	–	84	–	–	IC50 (CYP2D6; [10]): 0.9 µM; IC50 [4, 11]: 0.88 µM
CO[C@H](C)C(=O)N[C@@H](Cc1ccncc1)[C@H](O)CN[C@H]1CC2(CCC2)Oc2ncc(CC(C)(C)C)cc21 [compound 534]	500	–	113	3.6	178	–	–	IC50 [1, 14]: 0.023 µM; IC50 [4, 15]: 0.014 µM
CC(C)(C)Cc1cnc2c(c1)[C@@H](NC[C@@H](O)[C@H](Cc1ccc3c(c1)OCO3)NC(=O)C1CCO1)CC1(CCC1)O2 (stereo partly drawn) [compound 503, N-((1S,2R)-1-(1,3-benzodioxol-5-ylmethyl)-3-(((4′S)-6′-(2,2-dimethylpropyl)-3′,4′-dihydrospiro[cyclobutane-1,2′-pyrano[2,3-b]pyridin]-4′-yl)amino)-2-hydroxypropyl)-2-oxetanecarboxamide]	200	–	130	3.3	23	–	–	IC50 [1, 14]: 0.021 µM; IC50 [4, 15]: 0.017 µM
CC(=O)N[C@@H](Cc1cc(F)cc(-c2ccco2)c1)[C@H](O)CN[C@H]1CC2(CCC2)Oc2ccc(CC(C)(C)C)cc21 [compound 646]	2000	–	–	–	–	344	326	IC50 [1, 8]: 0.004 µM; IC50 (CYP2D6; 2D6 IC50, CYP2D6 inhibition): 1.6 µM; IC50 [4, 9]: 0.104 µM
COCC(=O)N[C@@H](Cc1cc(F)cc(F)c1)[C@H](O)CN[C@H]1CC2(CCC2)Oc2c(-c3cncs3)cc(CC(C)(C)C)cc21 [compound 486]	200	–	380	–	408	–	–	IC50 [1, 12]: 0.004 µM; IC50 (CYP2D6; [10]): 12.8 µM; IC50 [4, 13]: 0.033 µM
COCC(=O)N[C@@H](Cc1ccc(F)cc1)[C@H](O)CN[C@H]1CC(C)(C)Oc2ncc(CC(C)(C)C)cc21 [compound 663]	1700	–	–	–	–	133	163	IC50 [1, 8]: 0.013 µM; IC50 (CYP2D6; 2D6 IC50, CYP2D6 inhibition): 10.5 µM; IC50 [4, 9]: 0.021 µM
CO[C@H](C)C(=O)N[C@@H](Cc1ccc2c(c1)OCO2)[C@H](O)CN[C@H]1CC2(CCC2)Oc2c1cc(CC(C)C)nc2Cl [compound 657, (2R)-N-((1S,2R)-1-(1,3-benzodioxol-5-ylmethyl)-3-(((4′S)-8′-chloro-6′-(2-methylpropyl)-3′,4′-dihydrospiro[cyclobutane-1,2′-pyrano[2,3-c]pyridin]-4′-yl)amino)-2-hydroxypropyl)-2-methoxypropanamide]	160	–	–	–	–	178	96	IC50 [1, 8]: 0.03 µM; IC50 (CYP2D6; 2D6 IC50, CYP2D6 inhibition): 5.3 µM; IC50 [4, 9]: 0.524 µM
CO[C@H](C)C(=O)N[C@@H](Cc1cc(F)cc(-c2nccs2)c1)[C@H](O)CN[C@H]1CC2(CCC2)Oc2ncc(CC(C)(C)C)cc21 [compound 738, (2R)-N-((1S,2R)-3-(((4′S)-6′-(2,2-dimethylpropyl)-3′,4′-dihydrospiro[cyclobutane-1,2′-pyrano[2,3-b]pyridin]-4′-yl)amino)-1-(3-fluoro-5-(1,3-thiazol-2-yl)benzyl)-2-hydroxypropyl)-2-methoxypropanamide]	≤ 30	–	–	–	–	59	50	IC50 [1, 16]: 0.008 µM; IC50 (CYP2D6; [17]): 0.6 µM; IC50 [4, 18]: 0.01 µM
COCC(=O)N[C@@H](Cc1ccc(F)cc1)[C@H](O)CN[C@H]1CC2(CCC2)Oc2c1cc(CC(C)(C)C)nc2-c1nccs1 [compound 451]	600	–	682	–	248	–	–	IC50 [1, 12]: 0.019 µM; IC50 (CYP2D6; [10]): 9.4 µM; IC50 [4, 13]: 0.271 µM
COCC(=O)N[C@@H](Cc1cc(F)cc(F)c1)[C@H](O)CN[C@H]1CC2(CCC2)Oc2c1cc(CC(C)C)nc2-c1cncn1C [compound 715]	≤ 30	–	–	–	–	34	19	IC50 [1, 16]: 0.02 µM; IC50 (CYP2D6; [17]): 1.8 µM; IC50 [4, 18]: 0.016 µM
CO[C@H](C)C(=O)N[C@@H](Cc1cc(F)cc(-c2nccs2)c1)[C@H](O)CN[C@H]1CC2(CCC2)Oc2c1cc(CC(C)C)nc2Cl [compound 752]	100	–	–	–	–	137	166	IC50 [1, 16]: 0.009 µM; IC50 (CYP2D6; [17]): 1.3 µM; IC50 [4, 18]: 0.067 µM
COCC(=O)N[C@@H](Cc1cc(F)cc(F)c1)[C@H](O)CN[C@H]1CC2(CCC2)Oc2c1cc(CC(C)C)nc2-c1nccn1C [compound 714]	≤ 30	–	–	–	–	43	20	IC50 [1, 16]: 0.016 µM; IC50 (CYP2D6; [17]): 2.2 µM; IC50 [4, 18]: 0.017 µM
COCC(=O)N[C@@H](Cc1cccc(-c2nccs2)c1)[C@H](O)CN[C@H]1CC2(CCC2)Oc2ncc(CC(C)C)cc21 [Example 757, N-((1S,2R)-2-hydroxy-3-(((4′S)-6′-(2-methylpropyl)-3′,4′-dihydrospiro[cyclobutane-1,2′-pyrano[2,3-b]pyridin]-4′-yl)amino)-1-(3-(1,3-thiazol-2-yl)benzyl)propyl)-2-methoxyacetamide]	250	0.007	60	0.45	60	–	–	IC50 [4, 7]: 0.018 µM
CO[C@H](C)C(=O)N[C@@H](Cc1ccc2c(c1)OCO2)[C@H](O)CN[C@H]1CC2(CCC2)Cc2sc(CC(C)(C)C)cc21 [compound 455]	2600	–	201	–	211	–	–	IC50 [1, 12]: 0.049 µM; IC50 (CYP2D6; [10]): 5.5 µM; IC50 [4, 13]: 0.231 µM
COC(OC)C(=O)N[C@@H](Cc1cc(F)cc(-c2nccs2)c1)[C@H](O)CN[C@H]1CC2(CCC2)Oc2ncc(CC(C)(F)F)cc21 [compound 818]	600	0.013	46	2.3	41	–	–	IC50 [4, 7]: 0.059 µM
